Measurements reported in patent US12011439B2, “Combination therapy using C—C chemokine receptor 4 (CCR4) antagonists and one or more immune checkpoint inhibitors” (CHEMOCENTRYX, INC., priority 2018, dated 2024).

Assays:
Assay in all cases: Compound 1 selectivity panel, buffer IC50
Assay type in all cases: cell-based
CCR1 = target: T1, CCR1 (Homo sapiens, UniProt P32246); conditions: Receptor CCR1
T1 sequence (P32246 1-355): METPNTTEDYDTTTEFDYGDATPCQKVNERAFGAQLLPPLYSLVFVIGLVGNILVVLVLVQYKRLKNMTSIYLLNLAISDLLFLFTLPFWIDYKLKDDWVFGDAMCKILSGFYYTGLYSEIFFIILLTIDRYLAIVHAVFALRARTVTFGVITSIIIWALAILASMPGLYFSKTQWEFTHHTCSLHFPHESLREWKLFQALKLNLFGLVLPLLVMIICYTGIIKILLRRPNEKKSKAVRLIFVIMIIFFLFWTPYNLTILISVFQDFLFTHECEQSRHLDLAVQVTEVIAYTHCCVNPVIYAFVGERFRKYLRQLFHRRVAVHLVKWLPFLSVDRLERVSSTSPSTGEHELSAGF
Protocol: (§1) The selectivity of Compound 1 was tested by determining the IC50 value against a diverse panel of receptors, enzymes, and ion channels. […] See, Table 1.

CCR10 = target: T2, CCR10 (Homo sapiens, UniProt P46092); conditions: Receptor CCR10
T2 sequence (P46092 1-362): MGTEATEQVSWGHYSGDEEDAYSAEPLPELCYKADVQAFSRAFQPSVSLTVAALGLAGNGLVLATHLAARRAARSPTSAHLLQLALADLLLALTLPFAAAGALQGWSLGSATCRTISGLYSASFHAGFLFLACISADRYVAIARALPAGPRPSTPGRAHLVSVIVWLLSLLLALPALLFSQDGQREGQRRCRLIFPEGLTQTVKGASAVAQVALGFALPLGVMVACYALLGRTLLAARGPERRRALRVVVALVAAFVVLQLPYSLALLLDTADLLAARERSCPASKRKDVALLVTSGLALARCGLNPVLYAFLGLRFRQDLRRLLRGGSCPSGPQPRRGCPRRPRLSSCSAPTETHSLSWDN
Protocol: as §1

CCR2 = CCR2 (Homo sapiens, UniProt P41597); conditions: Receptor CCR2
Protocol: as §1

CCR5 = CCR5 (Homo sapiens, UniProt P51681); conditions: Receptor CCR5
Protocol: as §1

CCR7 = target: T3, CCR7 (Homo sapiens, UniProt P32248); conditions: Receptor CCR7
T3 sequence (P32248 25-378): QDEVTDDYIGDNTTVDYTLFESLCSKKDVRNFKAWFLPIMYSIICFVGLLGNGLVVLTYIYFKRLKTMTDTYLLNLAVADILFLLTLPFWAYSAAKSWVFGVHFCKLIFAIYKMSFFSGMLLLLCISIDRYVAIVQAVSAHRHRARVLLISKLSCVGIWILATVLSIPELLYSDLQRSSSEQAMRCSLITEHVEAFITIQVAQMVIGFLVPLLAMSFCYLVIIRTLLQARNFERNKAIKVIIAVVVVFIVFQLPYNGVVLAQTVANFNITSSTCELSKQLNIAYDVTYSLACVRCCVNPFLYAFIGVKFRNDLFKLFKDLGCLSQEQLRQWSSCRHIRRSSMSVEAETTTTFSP
Protocol: as §1

CCR8 = CCR8 (Homo sapiens, UniProt P51685); conditions: Receptor CCR8
Protocol: as §1

CCR9 = target: T4, CCR9 (Homo sapiens, UniProt P51686); conditions: Receptor CCR9
T4 sequence (P51686 1-369): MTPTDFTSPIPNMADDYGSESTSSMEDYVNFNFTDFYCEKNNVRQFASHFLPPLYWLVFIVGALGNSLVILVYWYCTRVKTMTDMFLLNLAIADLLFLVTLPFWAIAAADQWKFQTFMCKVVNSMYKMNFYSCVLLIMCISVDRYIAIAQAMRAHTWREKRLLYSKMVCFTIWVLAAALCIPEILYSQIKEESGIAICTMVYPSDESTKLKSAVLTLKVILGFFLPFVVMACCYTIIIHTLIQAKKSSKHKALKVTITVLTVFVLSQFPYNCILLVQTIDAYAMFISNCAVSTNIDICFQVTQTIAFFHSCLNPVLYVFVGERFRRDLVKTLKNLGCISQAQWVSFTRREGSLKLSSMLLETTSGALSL
Protocol: as §1

CXCR1 = target: T5, CXCR1 (Homo sapiens, UniProt P25024); conditions: Receptor CXCR1
T5 sequence (P25024 1-350): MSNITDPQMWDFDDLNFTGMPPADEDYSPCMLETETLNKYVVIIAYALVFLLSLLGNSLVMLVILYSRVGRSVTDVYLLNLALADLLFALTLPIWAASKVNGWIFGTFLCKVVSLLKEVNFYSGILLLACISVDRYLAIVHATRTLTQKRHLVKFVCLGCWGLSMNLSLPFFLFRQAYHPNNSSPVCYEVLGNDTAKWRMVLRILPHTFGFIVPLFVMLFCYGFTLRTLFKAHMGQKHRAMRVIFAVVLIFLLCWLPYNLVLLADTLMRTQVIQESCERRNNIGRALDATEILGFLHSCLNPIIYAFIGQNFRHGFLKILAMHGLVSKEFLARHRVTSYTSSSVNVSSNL
Protocol: as §1

CXCR3 = target: T6, CXCR3 (Homo sapiens, UniProt P49682); conditions: Receptor CXCR3
T6 sequence (P49682 1-368): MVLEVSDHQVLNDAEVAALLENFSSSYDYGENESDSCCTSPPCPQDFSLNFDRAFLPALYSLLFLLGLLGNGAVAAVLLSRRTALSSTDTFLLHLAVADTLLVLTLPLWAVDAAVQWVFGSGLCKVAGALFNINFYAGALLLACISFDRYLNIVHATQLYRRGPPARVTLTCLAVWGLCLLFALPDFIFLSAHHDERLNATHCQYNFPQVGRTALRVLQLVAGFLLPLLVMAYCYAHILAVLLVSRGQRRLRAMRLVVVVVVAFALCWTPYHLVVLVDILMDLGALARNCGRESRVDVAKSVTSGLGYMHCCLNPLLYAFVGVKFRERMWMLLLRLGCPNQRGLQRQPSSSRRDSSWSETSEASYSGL
Protocol: as §1

CXCR4 = CXCR4 (Homo sapiens, UniProt P61073); conditions: Receptor CXCR4
Protocol: as §1

CXCR6 = CXCR6 (Homo sapiens, UniProt O00574); conditions: Receptor CXCR6
Protocol: as §1

CXCR7 = CXCR7 (Homo sapiens, UniProt P25106); conditions: Receptor CXCR7
Protocol: as §1

Measured: IC50

Sequence of CCR2 (P41597 whole entry, species assumed): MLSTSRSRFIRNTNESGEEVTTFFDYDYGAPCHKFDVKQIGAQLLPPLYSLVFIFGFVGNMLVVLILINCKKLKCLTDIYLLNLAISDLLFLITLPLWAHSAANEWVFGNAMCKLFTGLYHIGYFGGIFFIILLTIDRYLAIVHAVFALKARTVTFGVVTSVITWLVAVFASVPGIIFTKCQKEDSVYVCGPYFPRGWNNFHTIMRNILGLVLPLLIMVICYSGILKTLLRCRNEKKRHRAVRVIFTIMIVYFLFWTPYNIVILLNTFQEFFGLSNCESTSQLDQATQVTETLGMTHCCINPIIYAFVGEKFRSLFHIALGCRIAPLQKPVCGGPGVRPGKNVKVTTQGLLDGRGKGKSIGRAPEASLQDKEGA
Sequence of CCR5 (P51681 whole entry, species assumed): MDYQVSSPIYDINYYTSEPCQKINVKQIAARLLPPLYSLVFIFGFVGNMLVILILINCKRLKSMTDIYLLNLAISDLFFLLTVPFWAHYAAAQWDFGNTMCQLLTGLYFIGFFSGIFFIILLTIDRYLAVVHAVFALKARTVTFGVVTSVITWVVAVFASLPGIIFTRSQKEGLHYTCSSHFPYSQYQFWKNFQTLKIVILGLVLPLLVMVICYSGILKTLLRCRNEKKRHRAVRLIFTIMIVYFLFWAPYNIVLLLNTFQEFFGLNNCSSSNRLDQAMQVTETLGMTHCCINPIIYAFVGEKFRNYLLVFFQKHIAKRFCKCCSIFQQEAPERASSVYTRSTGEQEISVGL
Sequence of CXCR4 (P61073 whole entry, species assumed): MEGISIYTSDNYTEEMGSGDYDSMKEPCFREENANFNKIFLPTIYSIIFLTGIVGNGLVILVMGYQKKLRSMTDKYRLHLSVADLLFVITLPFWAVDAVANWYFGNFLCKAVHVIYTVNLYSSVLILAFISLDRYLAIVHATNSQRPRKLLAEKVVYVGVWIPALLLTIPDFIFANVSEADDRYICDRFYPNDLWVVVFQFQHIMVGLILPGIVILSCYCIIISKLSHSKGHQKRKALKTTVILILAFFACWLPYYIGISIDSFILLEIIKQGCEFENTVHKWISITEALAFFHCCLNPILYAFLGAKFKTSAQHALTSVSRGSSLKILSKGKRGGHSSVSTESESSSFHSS
Sequence of CXCR7 (P25106 whole entry, species assumed): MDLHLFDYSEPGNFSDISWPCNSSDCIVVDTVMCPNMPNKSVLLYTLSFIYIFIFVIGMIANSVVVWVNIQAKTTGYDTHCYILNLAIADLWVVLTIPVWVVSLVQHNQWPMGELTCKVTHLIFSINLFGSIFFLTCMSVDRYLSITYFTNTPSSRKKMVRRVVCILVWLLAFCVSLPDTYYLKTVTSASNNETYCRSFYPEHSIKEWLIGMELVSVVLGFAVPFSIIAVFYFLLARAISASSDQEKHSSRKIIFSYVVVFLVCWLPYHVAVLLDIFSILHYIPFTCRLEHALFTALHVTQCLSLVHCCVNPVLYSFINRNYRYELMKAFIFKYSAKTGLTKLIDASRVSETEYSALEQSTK
Sequence of CXCR6 (O00574 whole entry, species assumed): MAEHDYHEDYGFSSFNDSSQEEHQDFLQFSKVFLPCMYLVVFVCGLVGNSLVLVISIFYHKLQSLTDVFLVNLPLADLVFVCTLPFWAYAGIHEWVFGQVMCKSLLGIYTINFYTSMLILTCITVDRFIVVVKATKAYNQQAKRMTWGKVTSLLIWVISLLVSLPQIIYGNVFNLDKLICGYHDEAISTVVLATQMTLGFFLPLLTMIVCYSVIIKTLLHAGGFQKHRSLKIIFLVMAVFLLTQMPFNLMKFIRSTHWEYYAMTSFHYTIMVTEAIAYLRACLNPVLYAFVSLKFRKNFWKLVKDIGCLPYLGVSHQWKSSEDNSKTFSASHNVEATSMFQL
Sequence of CCR8 (P51685 whole entry, species assumed): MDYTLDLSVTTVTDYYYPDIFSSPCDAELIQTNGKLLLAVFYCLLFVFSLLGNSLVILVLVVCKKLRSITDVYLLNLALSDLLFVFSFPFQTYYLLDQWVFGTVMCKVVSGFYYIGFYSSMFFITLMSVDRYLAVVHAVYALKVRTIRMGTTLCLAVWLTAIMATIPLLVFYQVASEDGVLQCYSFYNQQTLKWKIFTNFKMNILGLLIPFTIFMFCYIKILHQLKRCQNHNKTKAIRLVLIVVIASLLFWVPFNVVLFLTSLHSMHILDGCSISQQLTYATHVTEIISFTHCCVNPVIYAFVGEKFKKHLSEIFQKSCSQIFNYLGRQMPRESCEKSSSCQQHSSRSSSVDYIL

C[C@@H](Nc1cc(C2CCN([C@H]3CCCN(CCC(=O)O)C3)CC2)ccc1Cl)c1ccc(Cl)cc1Cl [Compound 1]
> 10 µM: all assays above
